Columns and labels:
[1] = target: T1, mouse RORγ (Mus musculus, UniProt P51450); assay: In-vitro reporter gene assay for inhibitory activity against RORγ transcription, Test Method A (GAL4-mRORγ LBD / pG5-Luc in CHO cells); assay type: cell-based; details: luciferase reporter, 2 days
T1 construct: from Ile251 to Lys516 for mouse RORγ; expressed in transfected cells; host or cells: CHO cells (transient co-transfection with pG5-Luc)
T1 sequence (P51450 251-516): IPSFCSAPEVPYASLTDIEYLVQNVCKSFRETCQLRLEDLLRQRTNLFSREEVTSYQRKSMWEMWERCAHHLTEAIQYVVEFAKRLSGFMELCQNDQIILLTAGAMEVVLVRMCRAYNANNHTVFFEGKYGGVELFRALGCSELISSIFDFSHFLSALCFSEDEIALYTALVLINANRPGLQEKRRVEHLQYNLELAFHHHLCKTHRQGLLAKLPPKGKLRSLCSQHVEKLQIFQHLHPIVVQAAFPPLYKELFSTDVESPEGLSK
Protocol: (§1) In-Vitro Assay for Inhibitory Activity Against RORγ Transcription
(§2) Inhibitory activity against RORγ transcription was assessed for test compounds by either of the following Test Method A or B of reporter gene assay.
(§3) cDNAs encoding human and mouse RORγ ligand binding domains (LBD) were obtained based on the sequences of human RORγ (Genbank registered number NM_005060.3) and mouse RORγ (Genbank registered number NM_011281.2) (LBD sequences: from Ser253 to Lys518 for human RORγ; from Ile251 to Lys516 for mouse RORγ).
(§4) LBD cDNAs of human and mouse RORγ were inserted into pFA-CMV vector (Stratagene), which expresses GAL4-DNA binding domain fusion protein. The resulting plasmids are hereinafter referred to as GAL4-hRORγ plasmid and GAL4-mRORγ plasmid, respectively.
(§5) GAL4-hRORγ plasmid or GAL4-mRORγ plasmid was transiently co-transfected into Chinese hamster ovary cells (CHO cells) with pG5-Luc (Promega), reporter plasmid expressing firefly luciferase in a GAL4-dependent manner.
(§6) TransIT (Registered trademark) CHO Transfection Kit (Mirus) was used to co-transfect CHO cells with the plasmids. One day prior to the assay, CHO cells were suspended in HAM F-12 Nutrient medium containing 10% (v/v) fetal bovine serum and seeded at 6×10^6 cells per 175 cm^2 cell culture flask each. 54 μL of TransIT (Registered trademark) CHO reagent was added into a 15 mL tube containing 1.16 mL of HAM F-12 Nutrient medium without fetal bovine serum, and then mixed and incubated at room temperature for 10 minutes. 36 μL of a plasmid solution containing 400 ng of GAL4-hRORγ plasmid, 9000 ng of pG5-Luc plasmid, and 8600 ng of pcDNA3 plasmid were added into the tube and mixed gently. In the case of mouse assay, a plasmid solution containing 250 ng of GAL4-mRORγ plasmid, 9000 ng of pG5-Luc plasmid, and 8750 ng of pcDNA3 plasmid was added, instead. The mixture was incubated at room temperature for 10 minutes. 9 μL each of CHO Mojo Reagent were then added into each tube and mixed gently. The mixture was incubated at room temperature for 10 minutes. The resulting transfection reagent was applied to the cell culture. After incubation at 37° C., 5% CO2 for 4 hours, the plasmid-transfected CHO cells were harvested by trypsin treatment. The collected cells were resuspended in culture medium and plated into a 384-well-white plate at 8,000 cells/50 μL/well. The plate was let stand at room temperature for 1 hour and then further incubated at 37° C., 5% CO2 for 3 hours. A test compound was dissolved in DMSO to obtain a concentration of 10 mM. Each solution was serially diluted with DMSO and further diluted with culture medium just before use. The test compound solutions were added. to the cells in the plate at 8 different concentrations. The final concentration of DMSO was 0.2% (v/v). After the addition of test compound, the cells were incubated at […], 5% CO2 for 2 days.
(§7) RORγ transcriptional activity was detected as the intracellular luciferase activity using SteadyLite HTS Reporter Gene Assay System (Perkin Elmer). SteadyLite Reagent was diluted five-fold with Extension buffer (10 mM Tricine, 0.2% (w/v) bovine serum albumin, 0.02% (v/v) Tween-20) to obtain a luciferase substrate solution. After the measurement of the cell viability with Resazurin, the medium was removed in the plate and the luciferase substrate solution was added thereto. After the incubation at room temperature for 10 minutes, luminescence of each well was measured with a microplate reader. The luciferase activity derived from the luminescence count in a vehicle-control well treated with 0.2% DMSO alone was defined as 100%, and the luciferase activity after treatment with the test compound was calculated as a percentage, %-of-control, based on the value of the vehicle-control. An EC50 value of the test compound was calculated by curve fitting with GraphPad Prism. The luminescence counts at the concentration of test compound where cytotoxicity was observed were excluded from data analysis. […]

[2] = target: T2, human RORγ (Homo sapiens, UniProt P51449); assay: In-vitro reporter gene assay for inhibitory activity against RORγ transcription, Test Method A (GAL4-hRORγ LBD / pG5-Luc in CHO cells); assay type: cell-based; details: luciferase reporter, 2 days
T2 construct: from Ser253 to Lys518 for human RORγ; expressed in transfected cells; host or cells: CHO cells (transient co-transfection with pG5-Luc)
T2 sequence (P51449 253-518): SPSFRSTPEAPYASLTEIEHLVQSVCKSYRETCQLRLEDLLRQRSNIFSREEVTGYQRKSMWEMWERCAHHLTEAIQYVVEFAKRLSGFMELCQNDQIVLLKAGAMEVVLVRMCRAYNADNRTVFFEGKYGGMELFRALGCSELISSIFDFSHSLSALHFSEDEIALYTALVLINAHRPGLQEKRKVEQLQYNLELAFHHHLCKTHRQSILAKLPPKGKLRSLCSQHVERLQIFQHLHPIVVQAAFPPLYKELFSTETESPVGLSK
Protocol: as §1, §2, §3, §4, §5, §6, §7

Compound | EC50 [1] | EC50 [2]
CC(C)(C)COc1ccc(C23CCCC2=NNC(=O)N3)cc1Cl (racemic) [Example 1, 4a-[3-Chloro-4-(2,2-dimethyl-propoxy)phenyl]-2,4,4a,5,6,7-hexahydro-cyclopenta[1,2,4]triazin-3-one] | 0.536 µM | 1.69 µM
CC(C)(C)CCc1ccc(C23CCC(C)(C)C2=CN(CCCC(=O)O)C(=O)N3)cc1 (racemic) [Example 2] | 0.022 µM | 0.03 µM
CCOC(=O)CCN1C=C2CN(C(=O)OC(C)(C)C)CC2(c2ccc(CCC(C)(C)C)c(Cl)c2)NC1=O (racemic) [Example 13] | 5.37 µM | 5.7 µM
CC(=O)N1CC2=CN(CCC(=O)O)C(=O)NC2(c2ccc(CCC(C)(C)C)c(Cl)c2)C1 (racemic) [Example 14] | 3.8 µM | 2.88 µM
CC(C)(C)CCc1ccc(C23CCCC2=CNC(=O)N3)cc1Cl (racemic) [Example 23] | 0.106 µM | 0.224 µM
CC(=O)NCC1CCC2(c3ccc(CCC(C)(C)C)c(Cl)c3)NC(=O)N(CCC(=O)O)C=C12 (racemic) [Example 30] | > 20 µM | > 20 µM
CC(C)(C)CCc1ccc(C23CCC(CC#N)C2=CN(CCC(=O)O)C(=O)N3)cc1Cl (racemic) [Example 31] | 0.048 µM | 0.048 µM
CC(C)(C)COc1ccc(C23CCCCC2=NNC(=O)N3)cc1Cl (racemic) [Example 36] | 0.071 µM | 0.435 µM
CC1=C2CCCCC2(c2ccc(CCC(C)(C)C)c(Cl)c2)NC(=O)N1CCC(=O)O (racemic) [Example 42] | 0.139 µM | 0.29 µM
CC(C)(C)CCc1ccc(C23CCCC(CCOCc4ccccc4)C2=CN(CCC(=O)O)C(=O)N3)cc1Cl (racemic) [Example 43] | 0.159 µM | 0.043 µM
CCOC(=O)CCN1C=C2C(CC(=O)O)CCCC2(c2ccc(CCC(C)(C)C)c(Cl)c2)NC1=O (racemic) [Example 45] | 0.84 µM | 1.63 µM
CCOC(=O)CCN1C=C2C(CN)CCCC2(c2ccc(CCC(C)(C)C)c(Cl)c2)NC1=O (racemic) [Example 47] | 8.83 µM | > 8 µM
CCOC(=O)CCN1C=C2C(CCNC)CCCC2(c2ccc(CCC(C)(C)C)c(Cl)c2)NC1=O (racemic) [Example 49] | > 3.2 µM | > 3.2 µM
CCOC(=O)CCN1C=C2C(CCN(C)C)CCCC2(c2ccc(CCC(C)(C)C)c(Cl)c2)NC1=O (racemic) [Example 50] | 7.48 µM | > 8 µM
CC1CCCC2(c3ccc(CCC(C)(C)C)c(Cl)c3)NC(=O)N(C34CC(C(=O)O)(C3)C4)C=C12 (racemic) [Example 73] | 0.027 µM | 0.014 µM
CC(C)(C)CCc1ccc(C23CCC(C)(C)C2=CN(CCC(=O)O)C(=O)N3)cc1Cl (single isomer, unassigned) [Example 3, 3-{7a-[3-Chloro-4-(3,3-dimethyl-butyl)phenyl]-5,5-dimethyl-2-oxo-1,2,5,6,7,7a-hexahydro-cyclopentapyrimidin-3-yl}propionate] | 0.013 µM | 0.008 µM
CC(C)(C)CCc1ccc(C23CCC(C)(C)C2=CN(CCC(=O)O)C(=O)N3)cc1Cl (single isomer, unassigned) [Example 4] | 1.01 µM | 1.02 µM

Now from value to compound:

EC50 [1] | EC50 [2] | Compound
0.126 µM | 0.332 µM | CC(C)(C)CCc1ccc(C23CCCC2=CN(CCC(=O)O)C(=O)N3)cc1Cl (racemic) [Example 24]
0.021 µM | 0.032 µM | CC(C)(C)CCc1ccc(C23CCCCC2=CN(CCC(=O)O)C(=O)N3)cc1Cl (racemic) [Example 39]
0.482 µM | 1.27 µM | CC(C)(C)CCc1ccc(C23CCCC(CCO)C2=CN(CCC(=O)O)C(=O)N3)cc1Cl (racemic) [Example 44]
0.211 µM | 0.302 µM | COCCC1CCCC2(c3ccc(CCC(C)(C)C)c(Cl)c3)NC(=O)N(CCC(=O)O)C=C12 (racemic) [Example 46]
1.87 µM | 1.99 µM | CC(C)(C)CCc1ccc(C23CCCC(CCOS(C)(=O)=O)C2=CN(CCC(=O)O)C(=O)N3)cc1Cl (racemic) [Example 48]
1.8 µM | 4.97 µM | CC(C)(C)CCc1ccc(C23CCCC(CC(N)=O)C2=CN(CCC(=O)O)C(=O)N3)cc1Cl (racemic) [Example 51]
0.029 µM | 0.018 µM | CC(C)(C)CCc1ccc(C23CCCC(CC#N)C2=CN(CCC(=O)O)C(=O)N3)cc1Cl (racemic) [Example 52]
0.058 µM | 0.093 µM | CC(C)(C)CCc1ccc(C23CCCC(CO)C2=CN(CCC(=O)O)C(=O)N3)cc1Cl (racemic) [Example 55]
0.029 µM | 0.02 µM | COCC1CCCC2(c3ccc(CCC(C)(C)C)c(Cl)c3)NC(=O)N(CCC(=O)O)C=C12 (racemic) [Example 56]
0.021 µM | 0.034 µM | CC1CCCC2(c3ccc(CCC(C)(C)C)c(Cl)c3)NC(=O)N(CCC(=O)O)C=C12 (racemic) [Example 57]
0.02 µM | 0.033 µM | CC(C)(C)CCc1ccc(C23COCCC2=CN(CCC(=O)O)C(=O)N3)cc1Cl (racemic) [Example 58]
0.149 µM | 0.279 µM | CC(C)CCOc1ccc(C23CCCCC2=CN(CCC(=O)O)C(=O)N3)cc1Cl (racemic) [Example 59]
0.072 µM | 0.118 µM | CC(C)(C)COc1ccc(C23CCCCC2=CN(CCC(=O)O)C(=O)N3)cc1Cl (racemic) [Example 60]
0.068 µM | 0.106 µM | CC(C)(C)CCOc1ccc(C23CCCCC2=CN(CCC(=O)O)C(=O)N3)cc1Cl (racemic) [Example 61]
0.099 µM | 0.151 µM | O=C(O)CCN1C=C2CCCCC2(c2ccc(OCCC3CCC3)c(Cl)c2)NC1=O (racemic) [Example 62]
0.022 µM | 0.022 µM | CC(C)(C)CCc1ccc(C23CCC(F)(F)CC2=CN(CCC(=O)O)C(=O)N3)cc1Cl (racemic) [Example 63]
0.052 µM | 0.034 µM | CC(C)(C)CCc1ccc(C23CC(C)(C)CCC2=CN(CCC(=O)O)C(=O)N3)cc1Cl (racemic) [Example 64]
0.16 µM | 1.16 µM | O=C(O)CCN1C=C2CCCCC2(c2ccc(OCC3(C(F)(F)F)CC3)c(Cl)c2)NC1=O (racemic) [Example 65]
0.024 µM | 0.016 µM | CC(C)(C)CCc1ccc(C23CCC(C)(C)CC2=CN(CCC(=O)O)C(=O)N3)cc1Cl (racemic) [Example 74]

From US20220119355A1, “SATURATED-RING-FUSED DIHYDROPYRIMIDINONE OR DIHYDROTRIAZINONE COMPOUNDS AND PHARMACEUTICAL USE THEREOF” (Japan Tobacco Inc., priority 2018, published 2022)
